Tested on: DMPK
Test: DMPK knockdown by transfected antisense oligonucleotides in DM1 C15 myotubes at 0.5 nM and 50 nM
Type: cell-based
Details: 72 hours; for Normalized DMPK Remaining: relative to vehicle control = 1.00
Experimental: Two hundred and thirty-six oligonucleotides for targeting DMPK were generated using in silico analysis. Each individual oligonucleotide was evaluated for their ability to target DMPK in cellulo at two doses—0.5 nM (low dose) and 50 nM (high dose).
Briefly, DM1 C15 immortalized myoblasts were cultured in T-75 flasks until near confluency (˜80% confluent). Myoblasts were then disrupted with trypsin and seeded into 96-well microplates at a density of 50,000 cells/well. Cells were allowed to recover overnight before the growth media was washed out and replaced with a no-serum media to induce differentiation into myotubes. Differentiation proceeded for seven days prior to treatment with DMPK-targeting oligonucleotides.
On day seven following induction of differentiation, DM1 C15 myotubes were transfected with an individual oligonucleotide using 0.3 μL of Lipofectamine MessengerMax per well. All oligonucleotides were tested at both 0.5 nM and 50 nM final concentrations in biological triplicates. After treatment with oligonucleotides, cells were incubated for 72 hours prior to being harvested for total RNA. cDNA was synthesized from the total RNA extracts and qPCR was performed to determine expression levels of DMPK in technical quadruplicate. All qPCR data were analyzed using a traditional […] method and were normalized to a plate-based negative control that comprised cells treated with vehicle control (0.3 μL/well Lipofectamine MessengerMax without any oligonucleotide). Results from these experiments are shown in Table 10. ‘Normalized DMPK Remaining’ for each antisense oligonucleotide in Table 10 refers to the expression level of DMPK in cell treated with said antisense oligonucleotide relative to the negative control that comprised cells treated with vehicle control (wherein the expression level of the negative control has been normalized to equal 1.00)

[1] = 0.5 nM oligonucleotide, qPCR, relative to vehicle control
[2] = 50 nM oligonucleotide, qPCR, relative to vehicle control

Substance	Percent DMPK Reduction (0.5 nM oligonucleotide) [%]	Normalized DMPK Remaining (0.5 nM oligonucleotide)	Percent DMPK Reduction (50 nM oligonucleotide) [%]	Normalized DMPK Remaining (50 nM oligonucleotide)	Percent DMPK Reduction [1] [%]	Normalized DMPK Remaining (0.5 nM oligonucleotide, qPCR)	Percent DMPK Reduction [2] [%]	Normalized DMPK Remaining (50 nM oligonucleotide, qPCR)
476 (AGCGUCACCUCGGCCUCAGC; chemistry not given here) [compound 476]	22.10	0.78	64.70	0.35	–	–	–	–
418 (GUAGUUGACUGGCGAAGUUC; chemistry not given here) [compound 418]	7.50	0.93	45.33	0.55	–	–	–	–
413 (GACAGACAAUAAAUACCGAG; chemistry not given here) [compound 413]	18.26	0.82	38.07	0.62	–	–	–	–
479 (UUGUAGUGGACGAUCUUGCC; chemistry not given here) [compound 479]	17.22	0.83	81.05	0.19	–	–	–	–
454 (GCAGAGAGAGGUGCUCCUUG; chemistry not given here) [compound 454]	17.29	0.83	85.95	0.14	–	–	–	–
435 (GCCUGUCAGCGAGUCGGAGG; chemistry not given here) [compound 435]	10.81	0.89	75.67	0.24	–	–	–	–
300 (GGCCUCAGCCUCUGCCGCAG; chemistry not given here) [compound 300]	–	–	–	–	20.12	0.80	71.28	0.29
297 (CUCAGGCUCUGCCGGGUGAG; chemistry not given here) [compound 297]	–	–	–	–	30.13	0.70	63.07	0.37
367 (GAUGUCCCUGUGCACGUAGC; chemistry not given here) [compound 367]	–	–	–	–	18.99	0.81	62.46	0.38
295 (CCUUGUAGUGGACGAUCUUG; chemistry not given here) [compound 295]	–	–	–	–	17.20	0.83	65.91	0.34
370 (ACUUGUUCAUGAUCUUCAUG; chemistry not given here) [compound 370]	–	–	–	–	25.47	0.75	52.89	0.47
285 (AUCUCGGCCGGAAUCCGCUC; chemistry not given here) [compound 285]	–	–	–	–	11.61	0.88	65.98	0.34
396 (ACAGACAAUAAAUACCGAGG; chemistry not given here) [compound 396]	-3.95	1.04	74.02	0.26	–	–	–	–
372 (UGGCCAUGACAAUCUCCGCC; chemistry not given here) [compound 372]	–	–	–	–	30.46	0.70	72.55	0.27
343 (CGUAGUUGACUGGCGAAGUU; chemistry not given here) [compound 343]	–	–	–	–	25.26	0.75	61.52	0.38
451 (CAGGAUGUUGUCGGGUUUGA; chemistry not given here) [compound 451]	17.17	0.83	79.31	0.21	–	–	–	–
480 (AGGGAAAGCGCCUCCGAUAG; chemistry not given here) [compound 480]	-1.12	1.01	75.50	0.25	–	–	–	–
303 (CCGUUCCAUCUGCCCGCAGC; chemistry not given here) [compound 303]	–	–	–	–	31.74	0.68	77.46	0.23
445 (GAGGGCCUUUUAUUCGCGAG; chemistry not given here) [compound 445]	8.23	0.92	62.21	0.38	–	–	–	–
336 (GAUGUUGUCGGGUUUGAUGU; chemistry not given here) [compound 336]	–	–	–	–	10.06	0.90	42.42	0.58
340 (GUACAGGUAGUUCUCAUCCU; chemistry not given here) [compound 340]	–	–	–	–	31.52	0.68	65.57	0.34
404 (CUCUGCCUCGCGUAGUUGAC; chemistry not given here) [compound 404]	16.61	0.83	91.21	0.09	–	–	–	–
255 (GUUGCGGGUUUGAUGUCCC; chemistry not given here) [compound 255]	–	–	–	–	33.31	0.67	61.07	0.39
452 (CGGCCUCAGCCUCUGCCGCA; chemistry not given here) [compound 452]	6.71	0.93	60.06	0.40	–	–	–	–
453 (CAGCAGGAUGUUGUCGGGUU; chemistry not given here) [compound 453]	34.18	0.66	84.54	0.15	–	–	–	–
419 (UGCGGAUGGCCUCCAUCUCC; chemistry not given here) [compound 419]	40.15	0.60	84.43	0.16	–	–	–	–
429 (GCGGUCCAGCAGGAUGUUGU; chemistry not given here) [compound 429]	38.84	0.61	83.64	0.16	–	–	–	–
471 (UCGGCCAGGCGGAUGUGGCC; chemistry not given here) [compound 471]	26.53	0.73	83.04	0.17	–	–	–	–
327 (CCCAAACUUGCUCAGCAGUG; chemistry not given here) [compound 327]	–	–	–	–	37.02	0.63	61.78	0.38
